One series deals with A549 cells. The series can be described thus: MTT antiproliferative assay, A549. It is filed as cell-based. Conditions: Homo sapiens, mean ± SD of three replicates. The protocol:
(§1) A431 (Human epidermoid carcinoma cell line) cell, A549 (Human non-small cell lung cancer cell line) cell, MCF-7 (Human breast adenocarcinoma cell line) cell, and NCI-H1975 (Human non-small cell lung cancer cell line) cell were purchased from the Shanghai Cell Bank of the Chinese Academy of Sciences. NRK-52E (Normal rat kidney cell line) cell was donated by Guizhou Medical University.
(§2) The IC50 value was determined from a sigmoid dose − response curve using Graph-Pad Prism (GraphPad Software, San Diego, CA).
For orientation: Tetrazolium dyes change colour on reduction, which living cells bring about.

The subject of a further series is A431 cells. The series can be described thus: MTT antiproliferative assay, A431. It is filed as cell-based, human. Conditions: mean ± SD of three replicates. Here is the method: as §1, §2
For series [1], the system named is MCF-7 cells. In words: MTT antiproliferative assay, MCF-7. It is filed as cell-based. Conditions: Homo sapiens, MCF7, mean ± SD of three replicates. The protocol: as §1, §2
A further series concerns the target T1, EGFR^wt-TK (Homo sapiens, UniProt P00533).
T1 construct: The recombinant EGFR^wt-TK and Antiphosphotyrosine mouse mAb were purchased from PTM Bio; purchased PTM Bio
In words: In vitro EGFR^wt-TK assay (ELISA). The settings on record: mean ± SD of three replicates. It is filed as biochemical. The protocol: Enzymatic inhibition of synthesised compounds against wild type EGFR tyrosine kinase was determined with enzyme-linked immunosorbent assays (ELISAs) as our previous methods. The recombinant EGFR^wt-TK and Antiphosphotyrosine mouse mAb were purchased from PTM Bio. The IC50 value was determined from a sigmoid dose − response curve using Graph-Pad Prism (GraphPad Software, San Diego, CA).
In general terms: ELISA stands for enzyme-linked immunosorbent assay.

The next series concerns NCI-H1975 cells. In words: MTT antiproliferative assay, NCI-H1975. It is filed as cell-based. Conditions: Homo sapiens, mean ± SD of three replicates. Here is the method:
as §1, §2

Series [2] deals with MCF-7 cells. In words: Cell cycle analysis (flow cytometry). It is filed as cell-based, human. The settings on record: MCF-7, 5 μM, 48 h. For orientation: A flow cytometer gives signals particle by particle.
Series [3] in a line: Stability in mice plasma (HPLC). Conditions: 37 °C, 60 min. It is filed as in vitro ADME. The protocol:
HPLC procedures and spectra
A 2.5 mL centrifuge tube was added 300 µL plasma derived from normal […] (7 weeks, male), and 30 µL compound A or compound 4d in ethanol (50 mM). The mixture was incubated at 37 °C for 60 min, and then treated with 300 µL of CH3CN, separated in centrifugation at 30000 rpm for 10 min. The supernatant was treated with the same procedure for another time and analyzed in HPLC using C18 column (4.6 mm x 250 mm) and mobile phase of CH3CN/H2O (90 : 10) with a flow rate of 1.5 mL/min.
Fig. S1 Metabolic stability in plasma of compound A
Fig. S2 Metabolic stability in plasma of compound 4d […]

For series [4], the system named is MCF-7 cells. The series can be described thus: Cell apoptosis analysis (Annexin V-FITC/PI flow cytometry). It is filed as cell-based, human. Conditions: MCF-7, 5 μM, 48 h.

T1 sequence (P00533 25-1210): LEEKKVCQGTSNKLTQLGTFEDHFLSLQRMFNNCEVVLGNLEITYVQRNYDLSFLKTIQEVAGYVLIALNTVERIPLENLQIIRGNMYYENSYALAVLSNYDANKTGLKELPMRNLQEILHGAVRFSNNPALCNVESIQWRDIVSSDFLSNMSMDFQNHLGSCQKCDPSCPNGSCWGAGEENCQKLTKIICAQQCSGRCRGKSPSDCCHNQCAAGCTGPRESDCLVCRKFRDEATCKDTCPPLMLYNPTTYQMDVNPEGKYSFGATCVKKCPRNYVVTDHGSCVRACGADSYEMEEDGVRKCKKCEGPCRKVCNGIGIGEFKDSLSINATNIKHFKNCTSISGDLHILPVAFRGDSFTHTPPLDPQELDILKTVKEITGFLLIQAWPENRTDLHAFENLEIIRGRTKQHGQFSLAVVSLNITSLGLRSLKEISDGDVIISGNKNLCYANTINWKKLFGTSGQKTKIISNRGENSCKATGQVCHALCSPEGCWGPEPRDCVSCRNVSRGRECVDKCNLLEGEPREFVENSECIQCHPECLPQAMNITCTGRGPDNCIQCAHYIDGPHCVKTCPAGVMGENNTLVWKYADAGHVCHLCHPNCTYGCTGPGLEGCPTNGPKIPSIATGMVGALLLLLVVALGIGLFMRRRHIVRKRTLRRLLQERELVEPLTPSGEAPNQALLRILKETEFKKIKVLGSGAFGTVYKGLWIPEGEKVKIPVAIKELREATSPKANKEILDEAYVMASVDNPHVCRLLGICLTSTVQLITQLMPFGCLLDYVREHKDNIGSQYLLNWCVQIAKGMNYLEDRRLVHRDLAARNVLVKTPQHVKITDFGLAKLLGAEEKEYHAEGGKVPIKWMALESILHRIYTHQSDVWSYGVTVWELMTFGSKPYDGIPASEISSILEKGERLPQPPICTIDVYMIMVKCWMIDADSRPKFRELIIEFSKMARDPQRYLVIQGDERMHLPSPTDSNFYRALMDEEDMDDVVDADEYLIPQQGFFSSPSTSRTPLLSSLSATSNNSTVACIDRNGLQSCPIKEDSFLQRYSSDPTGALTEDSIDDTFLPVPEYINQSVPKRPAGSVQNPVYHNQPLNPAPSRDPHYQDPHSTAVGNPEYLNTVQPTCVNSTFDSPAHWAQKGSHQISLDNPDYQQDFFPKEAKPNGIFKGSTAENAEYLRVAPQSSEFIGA

Broadly, the melting point is the temperature of the solid-liquid transition. The term IC50 denotes the concentration needed to halve the response being measured. On to `Cn1c(COc2ccc(/C=C/C(=O)c3cccc(F)c3)cc2)nc2ccccc2c1=O` [Compound 4a, (E)-2-((4–(3-(3-Fluorophenyl)-3-oxoprop-1-enyl)phenoxy)methyl)-3-methylquinazolin-4(3H)-one], for which the melting point fell in the range of 208 to 209 °C. The compound further returned a 50% inhibitory concentration (IC50) in the series with A549 cells of 8.63 ± 0.41 µM. In the series on A431 cells (Homo sapiens, A-431, MTT), this compound returned an IC50 of 9.32 ± 0.57 µM. The compound also came in with an IC50 with MCF-7 cells [1] of 10.6 ± 1.03 µM. Besides, at EGFR^wt-TK, the IC50 was 2.71 ± 0.22 µM. Also, in the series with NCI-H1975 cells, half-maximal inhibition (IC50) was put at 13.7 ± 1.61 µM.

`Cn1c(COc2ccc(NC(=O)Nc3cccc(F)c3)cc2)nc2ccccc2c1=O` [Compound 4g, 1-(3-Fluorophenyl)-3-(4-((3-methyl-4-oxo-3,4-dihydroquinazolin-2-yl)methoxy)phenyl)urea] had a melting point of 195 to 196 °C. Further, the midpoint of inhibition with A549 cells, the IC50, lay at 7.31 ± 0.59 µM. In the series on A431 cells (Homo sapiens, A-431, MTT), the IC50 is 8.34 µM. In the series with A431 cells (MTT), this compound showed an IC50 of 8.35 ± 0.46 µM. The same compound showed an IC50 in the series with MCF-7 cells [1] of 10.7 ± 2.07 µM. This compound gave an IC50 at EGFR^wt-TK of 0.71 ± 0.093 µM. The same compound gave an IC50 with NCI-H1975 cells of 10.2 ± 1.03 µM.

In turn, `Cn1c(COc2ccc(NC(=O)c3ccc(F)c(F)c3)cc2)nc2ccccc2c1=O` [Compound 4e, 3,4-Difluoro-N-(4-((3-methyl-4-oxo-3,4-dihydroquinazolin-2-yl)methoxy)phenyl)benzamide] showed a melting point of 248 to 249 °C. For the same compound, in the series with A549 cells, the IC50 was found to be 2.69 ± 0.32 µM. In the series on A431 cells (Homo sapiens, A-431, MTT), this compound had an IC50 of 3.53 ± 0.34 µM. For the same compound, the IC50 in the series on MCF-7 cells [1] is 0.96 ± 0.21 µM. The compound also came in with an IC50 against EGFR^wt-TK of 0.061 ± 0.007 µM. In addition, inhibition in the series on NCI-H1975 cells was half-maximal at 7.18 ± 0.49 µM (IC50).

In turn, `Cn1c(COc2ccc(NC(=O)c3cccc(F)c3)cc2)nc2ccccc2c1=O` [Compound 4d, 3-Fluoro-N-(4-((3-methyl-4-oxo-3,4-dihydroquinazolin-2-yl)methoxy)phenyl)benzamide] gave a melting point of 228 to 229 °C. In the series on A549 cells, this compound showed an IC50 of 2.55 ± 0.26 µM. In the series with A431 cells (Homo sapiens, A-431, MTT), this compound had an IC50 of 3.48 ± 0.49 µM. Besides, in the series on MCF-7 cells [2], the “percentage of cells in G2/M” value is 10.38%. For the same compound, in series [3] (Sprague Dawley (SD) mice plasma), the “purity after incubation with mice plasma” value is listed as “higher than 98%”. In addition, in the series on MCF-7 cells [4], the “ratio of apoptotic cells (late)” value is on record as 41.36%. Also, the IC50 in the series on MCF-7 cells [1] was found to be 0.87 ± 0.14 µM. For the same compound, the IC50 on EGFR^wt-TK came out at 0.053 ± 0.008 µM. The IC50 in the series on NCI-H1975 cells came to 6.42 ± 0.47 µM.

Take `Cn1c(COc2ccc(NC(=O)/C=C/c3ccc(F)c(F)c3)cc2)nc2ccccc2c1=O` [Compound 4f, (E)-3-(3,4-Difluorophenyl)-N-(4-((3-methyl-4-oxo-3,4-dihydroquinazolin-2-yl)methoxy)phenyl)acrylamide]: the melting point lay within 235 to 236 °C. In the series on A549 cells, the IC50 was 8.46 ± 0.67 µM. It took 8.76 ± 0.74 µM to reach half-maximal inhibition in the series with A431 cells (Homo sapiens, A-431, MTT) (IC50). For the same compound, in the series on MCF-7 cells [1], the IC50 is 2.84 ± 0.22 µM. Besides, at EGFR^wt-TK, the IC50 is 0.38 ± 0.075 µM. In addition, in the series on NCI-H1975 cells, half-maximal inhibition (IC50) required 9.33 ± 0.78 µM.

`COc1cc2ncnc(Nc3ccc(F)c(Cl)c3)c2cc1OCCCN1CCOCC1` [Gefitinib, reference compound]: the “percentage of cells in G2/M” value in the series with MCF-7 cells [2] was determined as 11.58%.

As for `Cn1c(COc2ccc(/C=N/c3cccc(F)c3)cc2)nc2ccccc2c1=O` [A, reference compound], the IC50 worked out at 17.9 ± 2.11 µM with A549 cells; 17.7 ± 2.08 µM in the series on A431 cells (Homo sapiens, A-431, MTT); 14.1 ± 1.85 µM in the series with MCF-7 cells [1]; 19.2 ± 3.02 µM in the series with NCI-H1975 cells. Also, the “stability in mice plasma” value in series [3] (SD mice plasma) is listed as “not stable”.

In the case of `Cn1c(COc2ccc(/C=C/c3cccc(F)c3)cc2)nc2ccccc2c1=O` [Compound 4c, (E)-2-((4-(3-Fluorostyryl)phenoxy)methyl)-3-methylquinazolin-4(3H)-one], the melting point was 160 to 162 °C. The midpoint of inhibition in the series with A549 cells, the IC50, lay at 4.26 ± 0.57 µM. The compound further gave a half-maximal inhibitory concentration (IC50) with A431 cells (Homo sapiens, A-431, MTT) of 6.79 ± 0.72 µM. Moreover, the half-maximal inhibitory concentration (IC50) in the series with MCF-7 cells [1] amounted to 6.04 ± 0.73 µM. On EGFR^wt-TK, this compound registered an IC50 of 0.2 ± 0.041 µM. Besides, 6.44 ± 0.85 µM corresponded to half-maximal inhibition with NCI-H1975 cells (IC50).

Compound `Cn1c(COc2ccc(C(=O)Nc3cccc(F)c3)cc2)nc2ccccc2c1=O` [Compound 4b, N-(3-Fluorophenyl)-4-((3-methyl-4-oxo-3,4-dihydroquinazolin-2-yl)methoxy)benzamide] displayed a melting point of 196 to 197 °C. Moreover, in the series on A549 cells, the IC50 came out at 9.08 ± 0.69 µM. The same compound returned an IC50 in the series with A431 cells (Homo sapiens, A-431, MTT) of 8.72 ± 0.46 µM. For the same compound, in the series on MCF-7 cells [1], the IC50 turned out to be 9.64 ± 0.88 µM. At EGFR^wt-TK, inhibition was half-maximal at 1.63 ± 0.15 µM (IC50). Moreover, in the series with NCI-H1975 cells, the IC50 came to 12.9 ± 1.44 µM.

(Values after publication PMC8174486, “Synthesis and preliminary structure-activity relationship study of 3-methylquinazolinone derivatives as EGFR inhibitors with enhanced antiproliferative activities against tumour cells” (Journal of Enzyme Inhibition and Medicinal Chemistry, 2021).)
